Patent US5663417A, “Carbocyclic sulfonamides” (Ono Pharmaceutical Co., Ltd., priority 1993, dated 1997)

Tested on: contraction of rat uterus induced by PGE2
Test: inhibitory effects of compounds on contraction of rat uterus induced by PGE2
Set-up: species or system rat (Sprague Dawley)
Conditions: contraction induced by 0.3 μM PGE2; isolated pseudo pregnant rat uterus strips, 28° C.; compound concentration not given
Protocol: (ii) The inhibitory effects of compounds on contraction of rat uterus induced by PGE2
Pseudo pregnant rat uterus (Sprague Dawley, 200-300 g, induced by oestradiol […] s.c. 18-24 hours before experiment) was isolated and longitudinal strips of 1-1.5 cm were set up in Locke-Ringer solution containing low Ca^2+, aerated with mixed gas (oxygen 95%+carbon dioxide 5%) at 28° C.

Structure (SMILES) | inhibition of the contraction of rat uterus induced by PGE2
CC1(C)[C@H]2C[C@H](NS(=O)(=O)/C=C/c3ccccc3)[C@@H](C/C=C\CCCC(=O)O)[C@@H]1C2 [6 (12), 7-[(1S, 2S, 3S, 5R)-3-(2-phenylvinylsulfonylamino)-6,6-dimethylbicyclo[3.1.1]heptan-2-yl]-5Z-heptenoic acid] | completely inhibited

Tested on: not listed separately
Test: acute toxicity (LD50) in mouse by oral administration
Conditions: in vivo
Protocol: For example, the acute toxicity (LD50) in mouse of 6-[(1S, 2R, 3R, 4R)-3-(4-bromophenylsulfonylaminomethyl)bicyclo[2.2.1]heptan-2-yl]-5Z-hexenoic acid (it is described as example 1(y) in specification of the U.S. Pat. No. 5,168,101.) was more than 300 mg/kg by oral administration.

Structure (SMILES) | LD50 [mg/kg]
O=C(O)CCC/C=C\[C@@H]1[C@H]2CC[C@H](C2)[C@H]1CNS(=O)(=O)c1ccc(Br)cc1 [U.S. Pat. No. 5168101 1 (y), 6-[(1S, 2R, 3R, 4R)-3-(4-bromophenylsulfonylaminomethyl)bicyclo[2.2.1]heptan-2-yl]-5Z-hexenoic acid] | > 300

Target: prostaglandin E2 receptor
Test: inhibition of [^3 H]-PGE2 receptor binding in rat uterus membrane fraction
Conditions: Table I; 5 nM [^3 H]-PGE2, rat uterus crude membrane fraction, pH 6.0, 1 hour at room temperature; read-out: IC50, inhibitory effects of PGE2 receptor binding in rat
Protocol: (i) The measurement of the inhibition of [^3 H]-PGE2 receptor binding
The standard assay mixture contained 5 nM [^3 H]-PGE2 (50 μl), test compounds (50 μl) and crude membrane fraction obtained from rat uterus (1.2 mg protein/ml, 100 μl) in a final volume of 200 μl (10 mM potassium phosphate pH 6.0, 0.1M NaCl (buffer A)). After incubation for 1 hour at room temperature, the reaction was stopped by the addition of 3 ml of ice-cold buffer A, after which the mixture was rapidly filtered through a Whatman GF/B glass filter. The radioactivity associated with the filter was measured in ACS II (Amarsham) by liquid scintillation counting. Percent inhibition of specific [^3 H]-PGE2 binding or IC50 value, the concentration required to compete with ^3 H-PGE2 receptor binding by 50% were calculated.

Structure (SMILES) | IC50 [µM]
Cc1ccc(S(=O)(=O)NCC2C3C=CC(C3)C2C=CCCCC(=O)O)cc1 (stereo not drawn) [U.S. Pat. No. 5168101 1 (aa)] | 2
O=C(O)CCCC=CC1C2C=CC(C2)C1CNS(=O)(=O)c1ccc(Br)cc1 (stereo not drawn) [U.S. Pat. No. 5168101 1 (bb)] | 0.82
O=C(O)CCC/C=C\C1CC2CC(NS(=O)(=O)c3ccc(Br)cc3)C1C2 (stereo not drawn) [U.S. Pat. No. 5168101 1 (c)] | 0.5
O=C(O)CCCC=CC1C2CCC(C2)C1CNS(=O)(=O)c1ccc(Br)cc1 (stereo not drawn) [U.S. Pat. No. 5168101 1 (cc)] | 0.39
Cc1ccc(S(=O)(=O)NCC2C3CCC(C3)C2/C=C\CCCC(=O)O)cc1 (stereo not drawn) [U.S. Pat. No. 5168101 1 (p)] | 6.4
O=C(O)CCC/C=C\C1CCCCC1CNS(=O)(=O)c1ccc(Br)cc1 (stereo not drawn) [U.S. Pat. No. 5168101 1 (t)] | 1.2
O=C(O)CCC/C=C\[C@@H]1[C@H]2CC[C@H](C2)[C@H]1CNS(=O)(=O)c1ccc(Br)cc1 [U.S. Pat. No. 5168101 1 (y), 6-[(1S, 2R, 3R, 4R)-3-(4-bromophenylsulfonylaminomethyl)bicyclo[2.2.1]heptan-2-yl]-5Z-hexenoic acid] | 0.62

More lines, now with the values ahead:

IC50 [µM] | Structure (SMILES)
0.77 | O=C(O)CCC/C=C\C1CC2CCC1C(NS(=O)(=O)c1ccc(Br)cc1)C2 (stereo not drawn) [U.S. Pat. No. 5168101 1 (a)]
3.5 | O=C(O)CCC/C=C\C1CC2CC(NS(=O)(=O)c3ccc(Br)cc3)C1C2 (stereo not drawn) [U.S. Pat. No. 5168101 1 (b)]
2.4 | O=C(O)CCC/C=C\[C@@H]1CC[C@H](NS(=O)(=O)c2ccc(Br)cc2)C1 [U.S. Pat. No. 5168101 1 (i)]
1.6 | Cc1ccc(S(=O)(=O)NCC2C3CCC(C3)C2C=CCCCC(=O)O)cc1 (stereo not drawn) [U.S. Pat. No. 5168101 1 (x)]

Same assay, conditions: Table II; 5 nM [^3 H]-PGE2, rat uterus crude membrane fraction, pH 6.0, 1 hour at room temperature; read-out: IC50, inhibitory effects of PGE2 receptor binding in rat

IC50 [µM] | Structure (SMILES)
< 0.01 | CC1(C)[C@H]2C[C@H](NS(=O)(=O)/C=C/c3ccccc3)[C@@H](C/C=C\CCCC(=O)O)[C@@H]1C2 [6 (12), 7-[(1S, 2S, 3S, 5R)-3-(2-phenylvinylsulfonylamino)-6,6-dimethylbicyclo[3.1.1]heptan-2-yl]-5Z-heptenoic acid]
0.26 | CC1(C)[C@H]2C[C@H](NS(=O)(=O)C=C(c3ccccc3)c3ccccc3)[C@@H](C/C=C\CCCC(=O)O)[C@@H]1C2 [Example 9, 7-[(1S,2S,3S,5R)-3-(2,2-diphenylvinylsulfonylamino)-6,6-dimethylbicyclo[3.1.1]heptan-2-yl]-5Z-heptenoic acid]
